Reference: US8546076B2, “Mutational profile in HIV-1 GAG cleavage site correlated with phenotypic drug resistance” (Tibotec Pharmaceuticals Ltd., priority 2007, dated 2013)
Where “and” joins values, the source holds several entries; their conditions need not be identical. Equal entries are not always repeated. Where two headings read alike, the source gives them in different places.

System: HIV-1
Settings: for Change versus baseline in log10 viral load (NC = F, non-VF censored), Mean (SE) / Virologic response rate (TLOVR, non-VF censored) defined as a decrease ≧1.0 log10 in plasma viral load versus baseline / Virologic response rate (TLOVR, non-VF censored) defined as a viral load <50 HIV-1 RNA copies/mL / mean changes versus baseline in viral load (size of decrease): Week 24; for mean changes versus baseline in viral load (size of decrease): E428G and/or R452S at baseline
Procedure: Virologic response was defined as viral load ≦50 copies/mL at week 24.
GAG genotypic analysis was performed on virus isolates from subjects of pooled trials.
Virological failures were defined using the TLOVR non-virologic failure (VF)-censored algorithm in which the responses at time points after discontinuation are not imputed (i.e. left missing) for patients who drop for reasons other than virologic failures. Using this imputation, patients that drop out for reasons other than viro logic failure are not automatically considered as rebounders or non-responders.
Genotypic analyses were performed by automated population-based sequencing. Sequence data were aligned to the wildtype HIV-1/HXB2CG reference and reported as amino acid changes along GAG and PR. Genotypic mixtures (a combination of different amino acids at 1 position) were reported. Amino acids were presented with their one letter code. Mutations in the 5 PR cleavage sites in the GAG region, encompassing the amino acids 128-137 (p17/p24), 359-368 (p24/p2), 373-382 (p2/p7), 428-437 (p7/p1), and 444-453 (p1/p6), were reported.
Virologic response was defined using the TLOVR non-VF censored algorithm eliminating patients who had no chance to respond (discontinuation before Week 16). Several endpoints to assess virologic response, e.g. proportion of responders with confirmed 1.0 log10 decrease in viral load versus baseline, change in viral load from baseline (NC=F), and proportion of responders with viral load <50 or <400 HIV-1 RNA copies/mL were evaluated.
Virologic response was defined using the TLOVR, non-VF censored algorithm eliminating patients who had no chance to respond (discontinuation before Week 16), resulting in 445 subjects included in the analysis. To assess outcome, several endpoints including the primary endpoint (proportion of responders with confirmed 1.0 log10 decrease in viral load at Week 24), change in viral load from baseline at Week 24 and proportion of responders with viral load <50 HIV-1 RNA copies/mL at Week 24 were evaluated.
Only mutations present at baseline in 10 subjects of the no/non-naïve ENF group (N=327) were taken into consideration.

[1] = E428G (p7/p1) at baseline, All subjects
[2] = E428G (p7/p1) at baseline, naïve ENF
[3] = R452S (p1/p6) at baseline, All subjects
[4] = R452S (p1/p6) at baseline, naïve ENF

darunavir/ritonavir [DRV/rtv]
Change versus baseline in log10 viral load (NC = F, non-VF censored), Mean (SE) [1]: −1.07 (0.298) log10 HIV-1 RNA copies/mL
Virologic response rate (TLOVR, non-VF censored) defined as a decrease ≧1.0 log10 in plasma viral load versus baseline [1]: 9 (47.4) %
Virologic response rate (TLOVR, non-VF censored) defined as a viral load <50 HIV-1 RNA copies/mL [1]: 3 (15.8) %
Change versus baseline in log10 viral load (NC = F, non-VF censored), Mean (SE) [2]: −1.72 (0.763) log10 HIV-1 RNA copies/mL
Virologic response rate (TLOVR, non-VF censored) defined as a decrease ≧1.0 log10 in plasma viral load versus baseline [2]: 3 (75.0) %
Virologic response rate (TLOVR, non-VF censored) defined as a viral load <50 HIV-1 RNA copies/mL [2]: 1 (25.0) %
Change versus baseline in log10 viral load (NC = F, non-VF censored), Mean (SE) (E428G (p7/p1) at baseline, no/non-naïve ENF): −0.89 (0.318) log10 HIV-1 RNA copies/mL
mean changes versus baseline in viral load (size of decrease) (no/non-naïve ENF): < 1.0 log10 and > 0.5 log10
mean changes versus baseline in viral load (size of decrease) (other subgroups (All, naïve ENF)): > 1.0 log10
Virologic response rate (TLOVR, non-VF censored) defined as a viral load <50 HIV-1 RNA copies/mL (L449P (p1/p6) at baseline, All subjects): 12 (36.4) %
Virologic response rate (TLOVR, non-VF censored) defined as a viral load <50 HIV-1 RNA copies/mL (L449P (p1/p6) at baseline, naïve ENF): 6 (50.0) %
Change versus baseline in log10 viral load (NC = F, non-VF censored), Mean (SE) (Overall, All subjects): −1.84 (0.061) log10 HIV-1 RNA copies/mL
Virologic response rate (TLOVR, non-VF censored) defined as a decrease ≧1.0 log10 in plasma viral load versus baseline (Overall, All subjects): 315 (70.8) %
Virologic response rate (TLOVR, non-VF censored) defined as a viral load <50 HIV-1 RNA copies/mL (Overall, All subjects): 207 (46.5) %
Change versus baseline in log10 viral load (NC = F, non-VF censored), Mean (SE) (Overall, naïve ENF): −2.33 (0.109) log10 HIV-1 RNA copies/mL
Virologic response rate (TLOVR, non-VF censored) defined as a decrease ≧1.0 log10 in plasma viral load versus baseline (Overall, naïve ENF): 102 (86.4) %
Virologic response rate (TLOVR, non-VF censored) defined as a viral load <50 HIV-1 RNA copies/mL (Overall, naïve ENF): 66 (55.9) %
Change versus baseline in log10 viral load (NC = F, non-VF censored), Mean (SE) (Overall, no/non-naïve ENF): −1.67 (0.071) log10 HIV-1 RNA copies/mL
Change versus baseline in log10 viral load (NC = F, non-VF censored), Mean (SE) [3]: −1.12 (0.293) log10 HIV-1 RNA copies/mL
Virologic response rate (TLOVR, non-VF censored) defined as a decrease ≧1.0 log10 in plasma viral load versus baseline [3]: 12 (48.0) %
Virologic response rate (TLOVR, non-VF censored) defined as a viral load <50 HIV-1 RNA copies/mL [3]: 7 (28.0) %
Change versus baseline in log10 viral load (NC = F, non-VF censored), Mean (SE) [4]: −2.50 (0.276) log10 HIV-1 RNA copies/mL
Virologic response rate (TLOVR, non-VF censored) defined as a decrease ≧1.0 log10 in plasma viral load versus baseline [4]: 7 (100) %
Virologic response rate (TLOVR, non-VF censored) defined as a viral load <50 HIV-1 RNA copies/mL [4]: 6 (85.7) %
Change versus baseline in log10 viral load (NC = F, non-VF censored), Mean (SE) (R452S (p1/p6) at baseline, no/non-naïve ENF): −0.58 (0.312) log10 HIV-1 RNA copies/mL
Virologic response rate (TLOVR, non-VF censored) defined as a viral load <50 HIV-1 RNA copies/mL (S451T (p1/p6) at baseline, All subjects): 4 (18.2) %
Virologic response rate (TLOVR, non-VF censored) defined as a viral load <50 HIV-1 RNA copies/mL (S451T (p1/p6) at baseline, naïve ENF): 1 (12.5) %
virologic response (viral load ≦50 copies/mL) relative to overall response (week 24, E428G at baseline, univariate analysis, N=467): < 75 % of overall response
